Source: PubChem BioAssay (NCI)
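Following 48 hours of exposure in 96-well plates, responses at five concentrations were used to interpolate endpoints linearly. Definition used: TGI = concentration required for complete inhibition of growth.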

Key:
Test in all cases: NCI tumour cell line growth inhibition, 48 h
786-0 renal = tested on: 786-0 renal
A498 renal = tested on: A498 renal
A549 NSCLC = tested on: A549 NSCLC
ACHN renal = tested on: ACHN renal
BT-549 breast = tested on: BT-549 breast
CAKI-1 renal = tested on: CAKI-1 renal
COLO 205 colon = tested on: COLO 205 colon
DU-145 prostate = tested on: DU-145 prostate
EKVX NSCLC = tested on: EKVX NSCLC
HCC-2998 colon = tested on: HCC-2998 colon
HCT-116 colon = tested on: HCT-116 colon
HCT-15 colon = tested on: HCT-15 colon
HOP-62 NSCLC = tested on: HOP-62 NSCLC
HOP-92 NSCLC = tested on: HOP-92 NSCLC
HS 578T breast = tested on: HS 578T breast
HT29 colon = tested on: HT29 colon
IGROV1 ovarian = tested on: IGROV1 ovarian
KM12 colon = tested on: KM12 colon
LOX IMVI melanoma = tested on: LOX IMVI melanoma
M14 melanoma = tested on: M14 melanoma
MCF7 breast = tested on: MCF7 breast
MDA-MB-231 breast = tested on: MDA-MB-231 breast
MDA-MB-435 = tested on: MDA-MB-435
MDA-N = tested on: MDA-N
MOLT-4 leukemia = tested on: MOLT-4 leukemia
NCI-H226 lung = tested on: NCI-H226 lung
NCI-H23 lung = tested on: NCI-H23 lung
NCI-H460 lung = tested on: NCI-H460 lung
NCI-H522 lung = tested on: NCI-H522 lung
NCI/ADR-RES ovarian = tested on: NCI/ADR-RES ovarian
OVCAR-3 ovarian = tested on: OVCAR-3 ovarian
OVCAR-4 ovarian = tested on: OVCAR-4 ovarian
OVCAR-5 ovarian = tested on: OVCAR-5 ovarian
OVCAR-8 ovarian = tested on: OVCAR-8 ovarian
PC-3 prostate = tested on: PC-3 prostate
RPMI-8226 leukemia = tested on: RPMI-8226 leukemia
SF-268 CNS = tested on: SF-268 CNS
SF-295 CNS = tested on: SF-295 CNS
SF-539 CNS = tested on: SF-539 CNS
SK-MEL-2 melanoma = tested on: SK-MEL-2 melanoma
SK-MEL-28 melanoma = tested on: SK-MEL-28 melanoma
SK-MEL-5 melanoma = tested on: SK-MEL-5 melanoma
SK-OV-3 ovarian = tested on: SK-OV-3 ovarian
SN12C renal = tested on: SN12C renal
SNB-19 CNS = tested on: SNB-19 CNS
SNB-75 CNS = tested on: SNB-75 CNS
SR leukemia = tested on: SR leukemia
SW-620 colon = tested on: SW-620 colon
T-47D breast = tested on: T-47D breast
TK-10 renal = tested on: TK-10 renal
U251 CNS = tested on: U251 CNS
UACC-257 melanoma = tested on: UACC-257 melanoma
UACC-62 melanoma = tested on: UACC-62 melanoma
UO-31 renal = tested on: UO-31 renal
CCRF-CEM leukemia = tested on: CCRF-CEM leukemia
HL-60(TB) leukemia = tested on: HL-60(TB) leukemia
K-562 leukemia = tested on: K-562 leukemia
MALME-3M melanoma = tested on: MALME-3M melanoma
RXF 393 renal = tested on: RXF 393 renal

Measured: TGI

Cc1c2c(n(CC(c3ccccc3)c3ccccc3)c1C)NN=C(C#N)S2(=O)=O
not listed: CCRF-CEM leukemia | HL-60(TB) leukemia | K-562 leukemia | MALME-3M melanoma | RXF 393 renal
> 100 µM: all other assays above

O=C(O)[C@H](CCC[C@H]1C(=O)O[C@H](c2ccccc2)[C@H](c2ccccc2)N1C(=O)OCc1ccccc1)N[C@@H](c1ccccc1)[C@H](O)c1ccccc1
54 µM: RPMI-8226 leukemia
48.4 µM: OVCAR-3 ovarian
42.1 µM: SN12C renal
75.9 µM: OVCAR-4 ovarian
85.4 µM: NCI-H23 lung
68.5 µM: SW-620 colon
42.2 µM: MALME-3M melanoma
55.1 µM: SNB-75 CNS
33.1 µM: MDA-MB-231 breast
44.9 µM: HCT-116 colon
53.1 µM: MDA-N
62.1 µM: A498 renal
47.9 µM: RXF 393 renal
58.9 µM: HS 578T breast
40.4 µM: KM12 colon
31.1 µM: U251 CNS
38.8 µM: HL-60(TB) leukemia
34.4 µM: SF-539 CNS
46.4 µM: CCRF-CEM leukemia
62 µM: MOLT-4 leukemia
40.8 µM: MDA-MB-435 | SK-MEL-2 melanoma
51.9 µM: LOX IMVI melanoma
38.6 µM: NCI-H522 lung
49.5 µM: HOP-92 NSCLC
39 µM: HOP-62 NSCLC | SK-MEL-28 melanoma
81 µM: SF-295 CNS
44.1 µM: UACC-62 melanoma
78.9 µM: BT-549 breast
45.7 µM: OVCAR-8 ovarian
52.3 µM: SR leukemia
44 µM: HCC-2998 colon
61.3 µM: SNB-19 CNS
43 µM: SK-MEL-5 melanoma
not listed: NCI-H226 lung
> 100 µM: all other assays above
